Laboratory results published in US20250051340A1, “TRIAZOLONE DERIVATIVE SALT AS NEUTROPHIL ELASTASE INHIBITOR” (CHIESI FARMACEUTICI S.P.A., priority 2021, published 2025).
Read-outs that look alike come from different tables or passages of the source. One block for each molecule: values may come before it.

How the values were obtained:
[1] = rat, in vivo
[2] = Solubility in water at RT; type: physicochemical
Protocol: The complete dissolution of the material was visually observed.
A saturated solution of hemi-pamoate salt in water at RT was prepared, with a theoretical concentration of about 2 mg/ml. The solid in excess was filtered out and the content of the solution was quantified by LC/UV at different check points until 24 hours.

[3] = target: T1, human neutrophil elastase (HNE) (Homo sapiens, UniProt P08246); assay: HNE-induced lung injury assay (BAL fluid haemoglobin content); type: in vivo, rat; details: i.t.; for % Inhibition of HNE-induced BAL fluid haemoglobin content at 3 μg/Kg / % Inhibition of HNE-induced BAL fluid haemoglobin content at 30 μg/Kg / % Inhibition of HNE-induced BAL fluid haemoglobin content at 300 μg/Kg: male Sprague Dawley rats, wet formulation, 3 h before HNE 100 U/rat, vs HNE-treated vehicle control
T1 sequence (P08246 30-267): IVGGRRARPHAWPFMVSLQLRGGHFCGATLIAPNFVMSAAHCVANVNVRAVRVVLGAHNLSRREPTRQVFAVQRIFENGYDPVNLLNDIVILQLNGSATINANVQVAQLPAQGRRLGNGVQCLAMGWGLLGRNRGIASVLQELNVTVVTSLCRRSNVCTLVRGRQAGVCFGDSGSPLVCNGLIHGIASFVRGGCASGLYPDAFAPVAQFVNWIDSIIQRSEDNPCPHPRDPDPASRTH
Protocol: Then, one hour after the PBS or HNE administration animals were sacrificed and bronchoalveolar lavage (BAL) was performed in order to assess the HNE-induced lung injury measured as haemoglobin concentration. BAL fluid samples were centrifuged at 800 g for 15 min at 4° C. The supernatant was collected, and the pellet was re-suspended in 3 mL of distilled water. A standard curve with known volumes of lysated blood cells was made from a stem solution of lysated blood cells. 150 µL of standards and samples were transferred in duplicate to a 96-well plate and the OD measured at 412 nm. Percentage of compound efficacy (assessed as inhibition of HNE-induced haemoglobin content in BALF) was calculated following this formula: 100−[(mean of haemoglobin concentration of test compound treated rats exposed to HNE)−(mean of haemoglobin concentration of vehicle treated rats exposed to PBS)]/[(mean of haemoglobin concentration of vehicle treated rats exposed to HNE)−(mean of haemoglobin concentration of vehicle treated rats exposed to PBS)]×100.

[4] = Head-out plethysmography (HOP) assay, lung function parameters; details: male Wistar rats, single snout-only inhalation, dry powder, 0.7 and 7 mg/kg, during or after dosing
[5] = thermodynamic from solid, read-out: Solubility

% of Reduction of tidal volume ([1]; male, Wistar): 38% | increase in PenH area compared to vehicle ([1]; male, Wistar, 0.55 mg/kg): about 8 fold | increase in respiratory rate, maximum effect ([1]; male, Wistar, 0.55 mg/kg): 59% | increase in PenH area compared to vehicle ([1]; male, Wistar, 5.5 mg/kg): ~20 fold | reduction in tidal volume, maximum ([1]; male, Wistar, 5.5 mg/kg): 38%
Molecule: COC(=O)C1=C(C)N(c2cccc(C(F)(F)F)c2)c2n[nH]c(=O)n2[C@@H]1c1ccc(C#N)cc1CC[N+](C)(C)C.[Br-] [Bromide, (2-{5-Cyano-2-[(R)-6-methoxycarbonyl-7-methyl-3-oxo-8-(3-trifluoromethyl-phenyl)-2,3,5,8-tetrahydro-[1,2,4]triazolo[4,3-a]pyrimidin-5-yl]-phenyl}-ethyl)-trimethyl-ammonium bromide]

solubility [2, 5]: 0.17 mg/mL
Molecule: COC(=O)C1=C(C)N(c2cccc(C(F)(F)F)c2)c2n[nH]c(=O)n2[C@@H]1c1ccc(C#N)cc1CC[N+](C)(C)C [Hemi-pamoate, (2-{5-Cyano-2-[(R)-6-methoxycarbonyl-7-methyl-3-oxo-8-(3-trifluoromethyl-phenyl)-2,3,5,8-tetrahydro-[1,2,4]triazolo[4,3-a]pyrimidin-5-yl]-phenyl}-ethyl)-trimethyl-ammonium hemi-pamoate]
% of Reduction of tidal volume [1]: No variation of any lung function parameters | % Inhibition of HNE-induced BAL fluid haemoglobin content at 3 μg/Kg [3]: 30% | % Inhibition of HNE-induced BAL fluid haemoglobin content at 30 μg/Kg ([3]; 30 μg/kg): 43% | % Inhibition of HNE-induced BAL fluid haemoglobin content at 300 μg/Kg ([3]; 300 μg/kg): 80% | inhibition of BAL fluid haemoglobin levels, dry powder, 30 μg/kg ([3]; rats, dry powder formulation, 30 μg/kg, vs HNE-treated vehicle (lactose) control): 4% | inhibition of BAL fluid haemoglobin levels, dry powder, 300 μg/kg ([3]; rats, dry powder formulation, 300 μg/kg, vs HNE-treated vehicle (lactose) control): 54% | inhibition of BAL fluid haemoglobin levels, dry powder, 600 μg/kg ([3]; rats, dry powder formulation, 600 μg/kg, vs HNE-treated vehicle (lactose) control): 60%

% of Reduction of tidal volume ([1]; male, Wistar): 35-39% | increase of PenH compared to vehicle ([1]; male, Wistar, 0.6 mg/kg): about 8 fold | increase of respiratory rate, peak effect ([1]; male, Wistar, 0.6 mg/kg): 32% | reduction of tidal volume, peak effect ([1]; male, Wistar, 0.6 mg/kg): 35% | increase of PenH compared to vehicle ([1]; male, Wistar, 6 mg/kg): ~16 fold | increase of respiratory rate, peak effect ([1]; male, Wistar, 6 mg/kg): 54% | reduction of tidal volume, peak effect ([1]; male, Wistar, 6 mg/kg): 39% | solubility ([2]; methanesulfonate): >200 mg/mL | solubility [2, 5]: > 200 mg/mL
Molecule: COC(=O)C1=C(C)N(c2cccc(C(F)(F)F)c2)c2n[nH]c(=O)n2[C@@H]1c1ccc(C#N)cc1CC[N+](C)(C)C.CS(=O)(=O)[O-] [Methanesulfonate, (2-{5-Cyano-2-[(R)-6-methoxycarbonyl-7-methyl-3-oxo-8-(3-trifluoromethyl-Phenyl)-2,3,5,8-tetrahydro-[1,2,4]triazolo[4,3-a]Pyrimidin-5-yl]-phenyl}-ethyl)-trimethyl-ammonium methanesulfonate]
% Inhibition of HNE-induced BAL fluid haemoglobin content at 3 μg/Kg [3]: 19% | % Inhibition of HNE-induced BAL fluid haemoglobin content at 30 μg/Kg ([3]; 30 μg/kg): 30% | % Inhibition of HNE-induced BAL fluid haemoglobin content at 300 μg/Kg ([3]; 300 μg/kg): 73%

Molecule: (2-{5-Cyano-2-[(R)-6-methoxycarbonyl-7-methyl-3-oxo-8-(3-trifluoromethyl-phenyl)-2,3,5,8-tetrahydro-[1,2,4]triazolo[4,3-a]pyrimidin-5-yl]-phenyl}-ethyl)-trimethyl-ammonium hemi-pamoate
effect on lung function parameters (respiratory rate, tidal volume, PenH) [4]: does not affect any lung function parameters
